Measured values published in paper PMC5127042, “A polysaccharide utilization locus from Flavobacterium johnsoniae enables conversion of recalcitrant chitin” (Biotechnology for Biofuels, 2016).

Experiments:
[1] = molecular target: T1, CusDI (Flavobacterium johnsoniae, UniProt A5FB66); assay: isothermal titration calorimetry; type: binding; settings: 20 mM HEPES, 100 mM NaCl, pH 7.0, 25 °C, one-site model
T1 construct: gene Fjoh_4558; residues 33-526, signal peptide removed, N-terminal His tag removed with TEV, E. coli Rosetta(DE3) pLysS
T1 sequence (A5FB66 33-526): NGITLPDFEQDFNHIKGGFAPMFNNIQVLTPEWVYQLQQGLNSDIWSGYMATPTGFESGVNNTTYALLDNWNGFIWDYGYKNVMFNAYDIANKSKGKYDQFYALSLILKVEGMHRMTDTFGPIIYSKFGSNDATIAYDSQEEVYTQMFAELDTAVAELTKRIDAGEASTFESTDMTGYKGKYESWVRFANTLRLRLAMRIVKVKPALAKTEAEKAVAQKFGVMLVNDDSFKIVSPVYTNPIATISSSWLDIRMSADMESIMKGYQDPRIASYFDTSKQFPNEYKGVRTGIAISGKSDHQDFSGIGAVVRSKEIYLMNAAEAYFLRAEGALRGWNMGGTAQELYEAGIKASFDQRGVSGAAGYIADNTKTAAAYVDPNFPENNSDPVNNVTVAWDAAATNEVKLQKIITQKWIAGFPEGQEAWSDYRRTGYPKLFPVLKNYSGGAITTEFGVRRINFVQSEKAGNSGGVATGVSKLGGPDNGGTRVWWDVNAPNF
Source text: isothermal titration calorimetry on CusDI

[2] = molecular target: T2, CusDII (Flavobacterium johnsoniae, UniProt A5FB55); assay: isothermal titration calorimetry; type: binding; settings: 20 mM HEPES, 100 mM NaCl, pH 7.0, 25 °C; independent site model
T2 construct: gene Fjoh_4561; residues 26-505 (crystal construct 35-505), signal peptide removed, N-terminal His tag removed with TEV, E. coli Rosetta(DE3) pLysS
T2 sequence (A5FB55 26-505): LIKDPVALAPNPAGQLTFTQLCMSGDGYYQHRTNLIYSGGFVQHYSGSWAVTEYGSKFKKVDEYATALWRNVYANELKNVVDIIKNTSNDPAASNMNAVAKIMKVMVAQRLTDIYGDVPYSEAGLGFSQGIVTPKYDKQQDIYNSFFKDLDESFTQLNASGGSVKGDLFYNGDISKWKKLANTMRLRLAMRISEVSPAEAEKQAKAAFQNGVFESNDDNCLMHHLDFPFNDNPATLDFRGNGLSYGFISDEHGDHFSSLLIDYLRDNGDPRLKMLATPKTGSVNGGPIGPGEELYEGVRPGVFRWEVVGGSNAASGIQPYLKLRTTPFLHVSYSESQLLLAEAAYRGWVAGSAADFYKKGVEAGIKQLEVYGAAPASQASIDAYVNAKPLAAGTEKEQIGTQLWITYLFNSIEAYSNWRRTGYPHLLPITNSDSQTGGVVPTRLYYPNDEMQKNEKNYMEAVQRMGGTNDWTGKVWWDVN
Source text: isothermal titration calorimetry on CusDII

Row | SMILES | Kd [1] [µM] | Kd [2] [µM] | further results
1 | CC(=O)N[C@H]1[C@H](O[C@H]2[C@H](O)[C@@H](NC(C)=O)C(O)O[C@@H]2CO)O[C@H](CO)[C@@H](O)[C@@H]1O (some centres unmarked) [Chitobiose] | 25.6 ± 2.3 |  | 
2 | CC(=O)N[C@H]1[C@H](O[C@H]2[C@H](O)[C@@H](NC(C)=O)[C@H](O[C@H]3[C@H](O)[C@@H](NC(C)=O)C(O)O[C@@H]3CO)O[C@@H]2CO)O[C@H](CO)[C@@H](O[C@@H]2O[C@H](CO)[C@@H](O[C@@H]3O[C@H](CO)[C@@H](O[C@@H]4O[C@H](CO)[C@@H](O)[C@H](O)[C@H]4NC(C)=O)[C@H](O)[C@H]3NC(C)=O)[C@H](O)[C@H]2NC(C)=O)[C@@H]1O (some centres unmarked) [Chitohexaose] | 16.1 ± 0.42 | 41.2 ± 1 | 
3 | CC(=O)N[C@H]1[C@H](O[C@H]2[C@H](O)[C@@H](NC(C)=O)[C@H](O[C@H]3[C@H](O)[C@@H](NC(C)=O)C(O)O[C@@H]3CO)O[C@@H]2CO)O[C@H](CO)[C@@H](O[C@@H]2O[C@H](CO)[C@@H](O[C@@H]3O[C@H](CO)[C@@H](O)[C@H](O)[C@H]3NC(C)=O)[C@H](O)[C@H]2NC(C)=O)[C@@H]1O (some centres unmarked) [Chitopentaose] | 12.8 ± 0.21 | 236 ± 8 | 
4 | CC(=O)N[C@H]1[C@H](O[C@H]2[C@H](O)[C@@H](NC(C)=O)C(O)O[C@@H]2CO)O[C@H](CO)[C@@H](O[C@@H]2O[C@H](CO)[C@@H](O[C@@H]3O[C@H](CO)[C@@H](O)[C@H](O)[C@H]3NC(C)=O)[C@H](O)[C@H]2NC(C)=O)[C@@H]1O (some centres unmarked) [Chitotetraose] |  |  | Kd ([1]; single titration): 38.3 ± 4.3 µM
5 | CC(=O)N[C@H]1[C@H](O[C@H]2[C@H](O)[C@@H](NC(C)=O)C(O)O[C@@H]2CO)O[C@H](CO)[C@@H](O[C@@H]2O[C@H](CO)[C@@H](O)[C@H](O)[C@H]2NC(C)=O)[C@@H]1O (some centres unmarked) [Chitotriose] | 8.51 ± 0.51 |  | 
6 | CC(=O)N[C@H]1C(O)O[C@H](CO)[C@@H](O)[C@@H]1O (some centres unmarked) [GlcNAc] |  |  | Kd ([1]; n constrained to 1): 1470 ± 210 µM
